Reference: ChEMBL document CHEMBL3797134, “Selectivity of 3-bromo-isoxazoline inhibitors between human and Plasmodium falciparum glyceraldehyde-3-phosphate dehydrogenases” (Bioorg Med Chem, 2016)
Calls of active or inactive are those of the source. The calls are words filed in the database; no cut-off is given here.

Key:
[1] = test system: COc1ccc(C2CC(Br)=NO2)cc1; test: Binding affinity to recombinant N-terminal His-tagged human GAPDH expressed in Escherichia coli BL21 codonPlus (DE3)-RIL cells assessed as enzyme Km at 50 uM after 4 hrs by Michaelis-Menten plot analysis (reference value: 340+/- 5 uM)
[2] = test system: COc1ccc(C2CC(Br)=NO2)cc1; test: Binding affinity to recombinant N-terminal His-tagged human GAPDH expressed in Escherichia coli BL21 codonPlus (DE3)-RIL cells assessed as enzyme Vmax at 50 uM after 4 hrs by Michaelis-Menten plot analysis (reference value: 0.069 +/- 0.003 mM/min)
[3] = molecular target: Glyceraldehyde-3-phosphate dehydrogenase (Plasmodium falciparum) (UniProt Q8T6B1); test: Slow phase inhibition of recombinant His-tagged Plasmodium falciparum GAPDH expressed in Escherichia coli using sodium arseniate as substrate assessed as ratio of Kinact to Ki by Kitz-Wilson double reciprocal plot analysis
Glyceraldehyde-3-phosphate dehydrogenase (Plasmodium falciparum), sequence (Q8T6B1 as listed by the source): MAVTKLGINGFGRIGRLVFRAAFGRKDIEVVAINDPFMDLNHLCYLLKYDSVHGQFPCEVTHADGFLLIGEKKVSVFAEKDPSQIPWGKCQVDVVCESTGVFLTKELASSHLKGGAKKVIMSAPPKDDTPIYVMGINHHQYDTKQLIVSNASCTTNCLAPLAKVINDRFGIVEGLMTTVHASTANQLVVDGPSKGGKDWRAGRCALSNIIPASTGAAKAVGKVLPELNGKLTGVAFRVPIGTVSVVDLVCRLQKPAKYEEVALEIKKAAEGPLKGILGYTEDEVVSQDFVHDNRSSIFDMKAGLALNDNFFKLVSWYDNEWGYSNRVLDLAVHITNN

[4] = molecular target: Glyceraldehyde-3-phosphate dehydrogenase (Plasmodium falciparum) (UniProt Q8T6B1); test: Inhibition of recombinant His-tagged Plasmodium falciparum GAPDH expressed in Escherichia coli using sodium arseniate as substrate at 50 to 300 uM
[5] = molecular target: Glyceraldehyde-3-phosphate dehydrogenase (Homo sapiens) (UniProt P04406); test: Inhibition of recombinant N-terminal His-tagged human GAPDH expressed in Escherichia coli BL21 codonPlus (DE3)-RIL cells using sodium arseniate as substrate at 10 to 300 uM
Glyceraldehyde-3-phosphate dehydrogenase (Homo sapiens), sequence (P04406 2-335 limits assumed): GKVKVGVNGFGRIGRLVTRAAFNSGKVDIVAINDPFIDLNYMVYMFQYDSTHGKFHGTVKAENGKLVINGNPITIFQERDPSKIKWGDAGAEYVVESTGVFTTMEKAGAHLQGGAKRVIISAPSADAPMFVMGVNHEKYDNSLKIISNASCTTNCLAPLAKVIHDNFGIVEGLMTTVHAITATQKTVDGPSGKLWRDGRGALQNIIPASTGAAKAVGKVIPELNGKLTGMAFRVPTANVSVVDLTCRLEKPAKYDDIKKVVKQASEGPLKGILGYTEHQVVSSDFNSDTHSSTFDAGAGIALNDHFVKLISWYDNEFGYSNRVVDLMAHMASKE

[6] = molecular target: Glyceraldehyde-3-phosphate dehydrogenase (Plasmodium falciparum) (UniProt Q8T6B1); test: Fast phase inhibition of recombinant His-tagged Plasmodium falciparum GAPDH expressed in Escherichia coli using sodium arseniate as substrate assessed as ratio of Kinact to Ki by Kitz-Wilson double reciprocal plot analysis
[7] = molecular target: Glyceraldehyde-3-phosphate dehydrogenase (Homo sapiens) (UniProt P04406); test: Fast phase inhibition of recombinant N-terminal His-tagged human GAPDH expressed in Escherichia coli BL21 codonPlus (DE3)-RIL cells using sodium arseniate as substrate assessed as ratio of Kinact to Ki by Kitz-Wilson double reciprocal plot analysis
[8] = molecular target: Glyceraldehyde-3-phosphate dehydrogenase (Homo sapiens) (UniProt P04406); test: Binding affinity to recombinant N-terminal His-tagged human GAPDH expressed in Escherichia coli BL21 codonPlus (DE3)-RIL cells assessed as decrease in reactive cysteine content at 50 uM after 4 hrs relative to control; set-up: scale not given: the % may be the effect or the level left
[9] = molecular target: Glyceraldehyde-3-phosphate dehydrogenase (Homo sapiens) (UniProt P04406); test: Binding affinity to recombinant N-terminal His-tagged human GAPDH expressed in Escherichia coli BL21 codonPlus (DE3)-RIL cells assessed as remaining cysteine pKa at 300 uM after 4 hrs (reference value: 6)
[10] = molecular target: Glyceraldehyde-3-phosphate dehydrogenase (Homo sapiens) (UniProt P04406); test: Effect on dimer to tetramer equilibrium of recombinant N-terminal His-tagged human GAPDH expressed in Escherichia coli BL21 codonPlus (DE3)-RIL cells at 50 uM after 4 hrs by gel filtration method

Glyceraldehyde-3-phosphate dehydrogenase (Homo sapiens), P04406, sequence (P04406 whole entry): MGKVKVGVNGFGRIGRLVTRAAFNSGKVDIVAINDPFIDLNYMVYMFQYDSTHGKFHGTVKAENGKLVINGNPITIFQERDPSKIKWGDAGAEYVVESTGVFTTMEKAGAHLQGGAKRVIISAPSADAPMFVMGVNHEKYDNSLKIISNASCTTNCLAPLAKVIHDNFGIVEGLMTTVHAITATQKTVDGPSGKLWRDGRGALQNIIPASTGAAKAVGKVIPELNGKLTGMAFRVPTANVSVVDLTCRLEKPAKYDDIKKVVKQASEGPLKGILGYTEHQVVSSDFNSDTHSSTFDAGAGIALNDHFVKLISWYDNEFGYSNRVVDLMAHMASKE

| Compound | Km [1] [µM] | Vmax [2] [mM/min] | Ratio [3] [s⁻¹ M⁻¹] | inhibition [4] [%] | inhibition [5] | Ratio [6] [s⁻¹ M⁻¹] | Ratio [7] [s⁻¹ M⁻¹] | Activity [8] [%] | pKa [9] | Activity [10] |
| --- | --- | --- | --- | --- | --- | --- | --- | --- | --- | --- |
| Glyceraldehyde-3-phosphate dehydrogenase (Homo sapiens), P04406 | 299 | 0.051 |  |  |  |  |  |  |  |  |
| COC(=O)[C@@H](N)[C@@H]1CC(Br)=NO1 |  |  | 10.7 |  |  |  |  |  |  |  |
| COc1ccc(C2CC(Br)=NO2)cc1 (stereo unspecified) |  |  | 0.34 | 25 | Active | 59.9 | 142 | 7.8 | 6.3 | inactive |
